In patent publication US5965088A, “Method for providing rapid disinfection of contact lenses” (priority 1997, dated 1999):
Like-named read-outs stand apart in the source and are kept apart here.

System: Staphylococcus aureus (ATCC 6538)
Assay: Antimicrobial efficacy (stand-alone log reduction), S. aureus
Assay type: cell-based
Conditions: for log reduction at 4 ppm / log reduction at 1 ppm / log reduction at 2 ppm / log reduction at 3 ppm / log reduction at 5 ppm / log reduction at 4 µg/mL: Staphylococcus aureus; for log reduction at 4 µg/mL: 4.0 ppm alexidine in ReNu MPS
Protocol: This Example illustrates the microbiocidal efficacy of solutions according to the present invention. The antimicrobial efficacy of each of various compositions for the chemical disinfection of contact lenses was evaluated. Microbial challenge inoculums were prepared using Pseudomonas aeruginosa (ATCC 9027), Staphylococcus aureus (ATCC 6538), Serratia marcescens (ATCC 13880), Candida albicans (ATCC 10231), and Fusarium solani (ATCC 36031). The test organisms were cultured on appropriate agar and the cultures were harvested using sterile DPBST (Dulbecco's Phosphate Buffered Saline plus 0.05% w/v polysorbate 80) or a suitable diluent and transferred to a suitable vessel. Spore suspensions were filtered through sterile glass wool to remove hyphal fragments. Serratia marcescens, as appropriate, was filtered (eg., through a 1.2 μ filter) to clarify the suspension. After harvesting, the suspension was centrifuged at no more than 5000× g for a maximum of 30 minutes at 20-25° C. The supernatant was poured off and resuspended in DPBST or other suitable diluent. The suspension was centrifuged a second time, and resuspended in DPBST or other suitable diluent. All challenge bacterial and fungal cell suspensions were adjusted with DPBST or other suitable diluent to 1×10^7 -10^8 cfu/mL. The appropriate cell concentration may be estimated by measuring the turbidity of the suspension, for example using a spectrophotometer at a preselected wavelength, for example 490 nm. One tube was prepared containing a minimum of 10 mL of test solution per challenge organism. Each tube of the solution to be tested was inoculated with a suspension of the test organism sufficient to provide a final count of 1.0×10^5 -10^6 cfu/mL, the volume of the inoculum not exceeding 1% of the sample volume. Dispersion of the inoculum was ensured by vortexing the sample for at least 15 seconds. The inoculated product was stored at 10-25° C. Aliquots in the amount of 1.0 mL were taken of the inoculated product for determination of viable counts after certain time periods of disinfection. The time points for the bacteria were 25, 50, 75, and 100% of the minimum disinfection time. Yeast and mold were tested at an additional timepoint of at least 400% of the minimum disinfection time. The suspension was mixed well by vortexing vigorously for at least 5 second. The 1.0 mL aliquots removed at the specified time intervals were subjected to a suitable series of decimal dilutions in validated neutralizing media. The suspensions were mixed vigorously and incubated for a suitable period of time to allow for neutralization of the microbial agent. The viable count of organisms was determined in appropriate dilutions by preparation of triplicate plates of trypticase soy (TSA) agar for bacteria and Sabouraud dextrose agar (SDA) for mold and yeast. The bacterial recovery plates were incubated at 30-35° C. for 2-4 days. The yeast was incubated at 20-30° C. for 2-4 days and mold recovery plates at 20-25° C. for 3-7 days. The average number of colony forming units was determined on countable plates. Countable plates refer to 30-300 cfu/plates for bacteria and yeast, and 8 to 80 cfu/plate for mold except when colonies are observed only for the 10^0 or 10^-1 dilution plates. The microbial reduction was then calculated at the specified time points. […] Following inoculation in a validated neutralizing broth and incubation for an appropriate period of time, the inoculum control must be between 1.0×10^5 -1.0×10^6 cfu/mL
The solutions were evaluated based on the performance requirement referred to as the "Stand-Alone Procedure for Disinfecting Products" (hereafter the "stand-alone test") and is based on the Disinfection Efficacy Testing for contact lens care products under the Draft Premarket Notification (510(k)) Guidance Document For Contact Lens Care Products dated Apr. 1, 1996, prepared by the U.S. Food and Drug Administration, Division of Ophthalmic Devices. […]

## CCCCC(CC)CNC(=N)NC(=N)NCCCCCCNC(=N)NC(=N)NCC(CC)CCCC.Cl.Cl (centres unmarked) [Alexidine.2HCl, 1,1 '-hexamethylenebis(5-(2-ethylhexyl)-biguanide) dihydrochloride]
4.0 ppm, Example 6, 15 min
  stand-alone test, 15 minute time point: the 15 minute time point failed
ATCC6538, 2.5 min
  log reduction at 4 ppm: 2
ATCC6538, 2.5 min, 4.0 ppm, aged 18 months, Exp. 1, 2.5 min, read-out: Log Reduction
  log reduction at 4 ppm: 2.2
ATCC6538, 2.5 min, 4.0 ppm, aged 18 months, Exp. 2, 2.5 min, read-out: Log Reduction
  log reduction at 4 ppm: 1.6
ATCC6538, 5 min, 1.0 ppm, read-out: Log Reduction at 5 Minutes
  log reduction at 1 ppm: 0.7
ATCC6538, 5 min, 2.0 ppm, read-out: Log Reduction at 5 Minutes
  log reduction at 2 ppm: 1.6
ATCC6538, 5 min, 3.0 ppm, read-out: Log Reduction at 5 Minutes
  log reduction at 3 ppm: 2.6
ATCC6538, 5 min, 4.0 ppm, aged 18 months, Exp. 1, 5.0 min, read-out: Log Reduction
  log reduction at 4 ppm: 2.7
ATCC6538, 5 min, 4.0 ppm, aged 18 months, Exp. 2, 5.0 min, read-out: Log Reduction
  log reduction at 4 ppm: 2
ATCC6538, 5 min, 4.0 ppm, aged 18 months, Exp. 3, 5.0 min, read-out: Log Reduction
  log reduction at 4 ppm: 2.8
ATCC6538, 5 min, 4.0 ppm, read-out: Log Reduction at 5 Minutes
  log reduction at 4 ppm: 4.8
ATCC6538, 5 min, 5.0 ppm, read-out: Log Reduction at 5 Minutes
  log reduction at 5 ppm: 4.8
ATCC6538, 0.125 h
  log reduction at 4 ppm: 2.3
ATCC6538, 0.125 h, 4.0 ppm, aged 18 months, Exp. 1, 7.5 min, read-out: Log Reduction
  log reduction at 4 ppm: 3.1
ATCC6538, 0.125 h, 4.0 ppm, aged 18 months, Exp. 3, 7.5 min, read-out: Log Reduction
  log reduction at 4 ppm: 3.4
ATCC6538, 10 min, 1.0 ppm, read-out: Log Reduction at 10 Minutes
  log reduction at 1 ppm: 1
ATCC6538, 10 min, 2.0 ppm, read-out: Log Reduction at 10 Minutes
  log reduction at 2 ppm: 2.6
ATCC6538, 10 min, 3.0 ppm, read-out: Log Reduction at 10 Minutes
  log reduction at 3 ppm: 4
ATCC6538, 10 min, 4.0 ppm, aged 18 months, Exp. 1, 10.0 min, read-out: Log Reduction
  log reduction at 4 ppm: 3.5
ATCC6538, 10 min, 4.0 ppm, aged 18 months, Exp. 2, 10.0 min, read-out: Log Reduction
  log reduction at 4 ppm: 2.7
ATCC6538, 10 min, 4.0 ppm, aged 18 months, Exp. 3, 10.0 min, read-out: Log Reduction
  log reduction at 4 ppm: 3.9
ATCC6538, 10 min, 4.0 ppm, read-out: Log Reduction at 10 Minutes
  log reduction at 4 ppm: 4.8
ATCC6538, 10 min, 5.0 ppm, read-out: Log Reduction at 10 Minutes
  log reduction at 5 ppm: > 4.8
ATCC6538, 0.25 h, 4.0 ppm, Ex. 6, aged 19 months at 25 °C, 15 min, read-out: Log Reduction
  log reduction at 4 ppm: 2.5
ATCC6538, 0.25 h, 4.0 ppm, Ex. 7, different lot aged 18 months, 15 min, read-out: Log Reduction
  log reduction at 4 ppm: 3.7
ATCC6538, 0.25 h, 4.0 ppm, Ex. 8, different batch aged 19 months at 25 °C, 15 min, read-out: Log Reduction
  log reduction at 4 ppm: 3.5
ATCC6538, 0.5 h, 4.0 ppm, Ex. 6, aged 19 months at 25 °C, 30 min, read-out: Log Reduction
  log reduction at 4 ppm: 4.4
ATCC6538, 0.5 h, 4.0 ppm, Ex. 7, different lot aged 18 months, 30 min, read-out: Log Reduction
  log reduction at 4 ppm: 4.7
ATCC6538, 0.5 h, 4.0 ppm, Ex. 8, different batch aged 19 months at 25 °C, 30 min, read-out: Log Reduction
  log reduction at 4 ppm: > 4.9
ATCC6538, 0.75 h, 4.0 ppm, Ex. 6, aged 19 months at 25 °C, 45 min, read-out: Log Reduction
  log reduction at 4 ppm: > 4.9
ATCC6538, 0.75 h, 4.0 ppm, Ex. 7, different lot aged 18 months, 45 min, read-out: Log Reduction
  log reduction at 4 ppm: > 4.8
ATCC6538, 0.75 h, 4.0 ppm, Ex. 8, different batch aged 19 months at 25 °C, 45 min, read-out: Log Reduction
  log reduction at 4 ppm: > 4.9
ATCC6538, 1 h, 1 ppm, 1 hr, read-out: Log Reduction
  log reduction at 1 ppm: 1.6
ATCC6538, 1 h, 2 ppm, 1 hr, read-out: Log Reduction
  log reduction at 2 ppm: 4.3
ATCC6538, 1 h, 3 ppm, 1 hr, read-out: Log Reduction
  log reduction at 3 ppm: > 4.8
ATCC6538, 1 h, 1 hr
  log reduction at 4 µg/mL: > 4.9
ATCC6538, 1 h, 4 ppm, 1 hr, read-out: Log Reduction
  log reduction at 4 ppm: > 4.8
ATCC6538, 1 h, 4.0 ppm, Ex. 6, aged 19 months at 25 °C, 60 min, read-out: Log Reduction
  log reduction at 4 ppm: > 4.9
ATCC6538, 1 h, 4.0 ppm, Ex. 7, different lot aged 18 months, 60 min, read-out: Log Reduction
  log reduction at 4 ppm: > 4.8
ATCC6538, 1 h, 4.0 ppm, Ex. 8, different batch aged 19 months at 25 °C, 60 min, read-out: Log Reduction
  log reduction at 4 ppm: > 4.9
ATCC6538, 1 h, 5 ppm, 1 hr, read-out: Log Reduction
  log reduction at 5 ppm: > 4.8
ATCC6538, 2 h, 2 hr
  log reduction at 4 µg/mL: > 4.9
ATCC6538, 3 h, 3 hr
  log reduction at 4 µg/mL: > 4.9
ATCC6538, 4 h, 4 hr
  log reduction at 4 µg/mL: > 4.9
